{"source": "patent EP0353416A2", "about": "“Use of ajoene and ajoene derivatives as cytostatics” (Gesellschaft für Biotechnologische Forschung mbH (GBF), priority 1988, dated 1990)", "key": {"[1]": {"test": "Inhibition of proliferation by incorporation of radioactive thymidine, BHK cell culture", "format": "cell-based, Hamster", "details": "hamster; BHK cells; beyond the limit of reversible inhibition; read-out: irreversible, d. h. toxische Wirkung", "text": "(§1) Man ließ Ajoen auf eine Zellkultur der SV40-transformierten Baby-Hamster-Kidney-Linie (BHK; Fibroblast) einwirken. Die Proliferationshemmung wurde über den Einbau von radioaktivem Thymidin getestet."}, "[2]": {"system": "SV40-transformierten Baby-Hamster-Kidney-Linie (BHK; Fibroblast)", "test": "Inhibition of proliferation by incorporation of radioactive thymidine, BHK cell culture", "format": "cell-based", "details": "BHK cells", "text": "as §1"}, "[3]": {"system": "Hela-Zellen", "test": "Inhibition of proliferation (thymidine incorporation), Hela cells", "format": "cell-based", "details": "Hela cells (Beispiel 3)", "protocol": "(§2) Man ließ Ajoen auf eine Zellkultur der SV40-transformierten Baby-Hamster-Kidney-Linie (BHK; Fibroblast) einwirken. Die Proliferationshemmung wurde über den Einbau von radioaktivem Thymidin getestet. Sie ließ sich ab 1 µg Ajoen/ml ermitteln. Die Figur zeigt eine typische Hemmkurve. Der Figur läßt sich entnehmen, daß die Ki-Werte (50 %) im Bereich von etwa 1 bis 10 und insbesondere etwa 2 bis 5 µg Ajoen/ml lagen.\n(§3) Beispiel 1 wurde ferner abweichend mit folgenden Linien nachgearbeitet: Hela-Zellen (Beispiel 3), LTK-Mäusezellen (Fibro blasten; Beispiel 4) und humane FS4-Vorhautzellen (Fibroblast). Auch bei diesen Beispielen wurde die cytostatische und cytotoxische Wirkung des Ajoens bestätigt."}, "[4]": {"system": "LTK-Mäusezellen (Fibroblasten)", "test": "Inhibition of proliferation (thymidine incorporation), LTK mouse cells", "format": "cell-based, Mäuse", "details": "LTK mouse cells (Beispiel 4)", "protocol": "as §2, §3"}, "[5]": {"system": "humane FS4-Vorhautzellen (Fibroblast)", "test": "Inhibition of proliferation (thymidine incorporation), human FS4 foreskin cells", "format": "cell-based", "protocol": "as §2, §3"}}}
{"compound": "C=CCSSC=CC[S+]([O-])CC=C", "note": "(stereo not drawn) [Ajoen]", "values": [{"measurement": "MCC", "setting": "[1]", "result": "> 20", "unit": "µg/mL"}, {"measurement": "Hemmung der Proliferation reversibel bis zu", "setting": "[2]; upper concentration of reversible inhibition", "result": "≤ 20", "unit": "µg Ajoen/ml"}, {"measurement": "minimal effective concentration", "setting": "[2]; Mesocricetus auratus, lowest concentration at which inhibition was detectable, thymidine incorporation, read-out: Proliferationshemmung ließ sich ermitteln ab", "result": "≥ 1", "unit": "µg/mL"}, {"measurement": "cytostatische und cytotoxische Wirkung", "setting": "[3]", "result": "bestätigt"}, {"measurement": "cytostatische und cytotoxische Wirkung", "setting": "[4]", "result": "bestätigt"}, {"measurement": "cytostatische und cytotoxische Wirkung", "setting": "[5]", "result": "bestätigt"}]}
